Measured values as given in article PMC5224920, “Assessing the mechanism and therapeutic potential of modulators of the human Mediator complex-associated protein kinases” (eLife, 2016).

System: 12 single or co-culture in vitro tissue models of primary cells
Assay: Culture/co-culture cell model panel, extracellular biomarkers (DiscoveRx); for CCL2/MCP-1: reference of the scale not given here; for CD141/Thrombomodulin: reference of the scale not given here; for CD142/Tissue Factor: reference of the scale not given here; for CD38: reference of the scale not given here; for CD40: reference of the scale not given here; for CD69: reference of the scale not given here; for CXCL8/IL-8: reference of the scale not given here; for CXCL9/MIG: reference of the scale not given here; for IL-1alpha: reference of the scale not given here; for M-CSF: reference of the scale not given here; for SRB: reference of the scale not given here; for sPGE2: reference of the scale not given here; for sTNF-alpha: reference of the scale not given here
Assay type: cell-based, human
[1] = HDF3CGF stimulated fibroblasts, 4.12E1 nM
[2] = HDF3CGF stimulated fibroblasts, 4.57E0 nM
[3] = HPNo Huvec+PBMC unstimulated, 1.00E4 nM
[4] = HPNo Huvec+PBMC unstimulated, 1.11E3 nM
[5] = HPNo Huvec+PBMC unstimulated, 1.23E2 nM
[6] = HPNo Huvec+PBMC unstimulated, 1.37E1 nM
[7] = HPNo Huvec+PBMC unstimulated, 3.33E3 nM
[8] = HPNo Huvec+PBMC unstimulated, 3.70E2 nM
[9] = HPNo Huvec+PBMC unstimulated, 4.12E1 nM
[10] = HPNo Huvec+PBMC unstimulated, 4.57E0 nM

For Cc1n[nH]c2ncc(C(=O)N3CCC[C@H]3c3ccc(Cl)cc3)cc12 [CMPD4], the CXCL9/MIG [1] was -0.024, the CXCL10/IP-10 [1] was 0.059 and the CXCL11/I-TAC [1] was -0.035. For the same molecule, the “Collagen I” value [1] was 0.021, the “Collagen III” value [1] was 0.082 and the EGFR [1] was -0.094. The M-CSF [1] was -0.046, the MMP-1 [1] was -0.00129 and the PAI-I [1] was 0.033. The Proliferation_72hr [1] was -0.178, the SRB [1] was 0.010 and the TIMP-1 [1] was -0.070. For the same molecule, the TIMP-2 [1] was 0.099, the CCL2/MCP-1 [2] was -0.020 and the CD54/ICAM-1 [2] was -0.041. It also gave a CD106/VCAM-1 [2] of 0.047, a CXCL8/IL-8 [2] of -0.013 and a CXCL9/MIG [2] of 0.00852. For the same molecule, the CXCL10/IP-10 [2] was 0.000432, the CXCL11/I-TAC [2] was -0.0056 and the “Collagen I” value [2] was 0.023. For the same molecule, the “Collagen III” value [2] was 0.081, the EGFR [2] was -0.043 and the M-CSF [2] was -0.051. For the same molecule, the MMP-1 [2] was 0.013, the PAI-I [2] was -0.032 and the Proliferation_72hr [2] was -0.119. It also gave an SRB [2] of 0.018, a TIMP-1 [2] of -0.010 and a TIMP-2 [2] of 0.136. The CCL2/MCP-1 [3] was 0.039, the CD38 [3] was 0.081 and the CD40 [3] was -0.033. For the same molecule, the CD106/VCAM-1 [3] was 0.342, the CD141/Thrombomodulin [3] was 0.00066 and the “CD142/Tissue Factor” value [3] was 0.063. It also gave a CCL2/MCP-1 [4] of 0.053, a CD38 [4] of -0.040 and a CD40 [4] of -0.130. For the same molecule, the CD106/VCAM-1 [4] was 0.396, the CD141/Thrombomodulin [4] was 0.021 and the “CD142/Tissue Factor” value [4] was 0.064. It also gave a CCL2/MCP-1 [5] of 0.040, a CD38 [5] of -0.022 and a CD40 [5] of -0.171. The CD106/VCAM-1 [5] was 0.307, the CD141/Thrombomodulin [5] was 0.025 and the “CD142/Tissue Factor” value [5] was 0.061. It also gave a CCL2/MCP-1 [6] of 0.053, a CD38 [6] of -0.066 and a CD40 [6] of -0.106. The CD106/VCAM-1 [6] was 0.175, the CD141/Thrombomodulin [6] was 0.022 and the “CD142/Tissue Factor” value [6] was 0.010. The CCL2/MCP-1 [7] was 0.058, the CD38 [7] was 0.024 and the CD40 [7] was -0.093. For the same molecule, the CD106/VCAM-1 [7] was 0.305, the CD141/Thrombomodulin [7] was 0.019 and the “CD142/Tissue Factor” value [7] was 0.022. It also gave a CCL2/MCP-1 [8] of 0.274, a CD38 [8] of -0.028 and a CD40 [8] of -0.186. For the same molecule, the CD106/VCAM-1 [8] was 0.375, the CD141/Thrombomodulin [8] was 0.045 and the “CD142/Tissue Factor” value [8] was 0.045. For the same molecule, the CCL2/MCP-1 [9] was 0.148, the CD38 [9] was -0.052 and the CD40 [9] was -0.089. For the same molecule, the CD106/VCAM-1 [9] was 0.250, the CD141/Thrombomodulin [9] was 0.031 and the “CD142/Tissue Factor” value [9] was 0.096. It also gave a CCL2/MCP-1 [10] of -0.076, a CD38 [10] of -0.060 and a CD40 [10] of -0.075. For the same molecule, the CD106/VCAM-1 [10] was 0.144, the CD141/Thrombomodulin [10] was 0.022 and the “CD142/Tissue Factor” value [10] was 0.017. The CD62E/E-Selectin (HPNo, 1.00E4 nM) was 0.080, the CD69 (HPNo, 1.00E4 nM) was 0.150 and the CXCL8/IL-8 (HPNo, 1.00E4 nM) was 0.030. The CXCL9/MIG (HPNo, 1.00E4 nM) was -0.025, the M-CSF (HPNo, 1.00E4 nM) was 0.075 and the SRB (HPNo, 1.00E4 nM) was -0.053. The sPGE2 (HPNo, 1.00E4 nM) was 0.066, the sTNF-alpha (HPNo, 1.00E4 nM) was -0.036 and the CD62E/E-Selectin (HPNo, 1.11E3 nM) was 0.014. It also gave a CD69 (HPNo, 1.11E3 nM) of 0.063, a CXCL8/IL-8 (HPNo, 1.11E3 nM) of -0.048 and a CXCL9/MIG (HPNo, 1.11E3 nM) of -0.091. It also gave a M-CSF (HPNo, 1.11E3 nM) of 0.074, an SRB (HPNo, 1.11E3 nM) of -0.034 and a sPGE2 (HPNo, 1.11E3 nM) of 0.043. It also gave a sTNF-alpha (HPNo, 1.11E3 nM) of -0.019, a CD62E/E-Selectin (HPNo, 1.23E2 nM) of -0.027 and a CD69 (HPNo, 1.23E2 nM) of 0.039. The CXCL8/IL-8 (HPNo, 1.23E2 nM) was 0.011, the CXCL9/MIG (HPNo, 1.23E2 nM) was -0.025 and the M-CSF (HPNo, 1.23E2 nM) was -0.084. For the same molecule, the SRB (HPNo, 1.23E2 nM) was -0.005, the sPGE2 (HPNo, 1.23E2 nM) was 0.030 and the sTNF-alpha (HPNo, 1.23E2 nM) was 0.010. The CD62E/E-Selectin (HPNo, 1.37E1 nM) was -0.035, the CD69 (HPNo, 1.37E1 nM) was -0.005 and the CXCL8/IL-8 (HPNo, 1.37E1 nM) was -0.023. The CXCL9/MIG (HPNo, 1.37E1 nM) was -0.068, the M-CSF (HPNo, 1.37E1 nM) was 0.015 and the SRB (HPNo, 1.37E1 nM) was 0.027. For the same molecule, the sPGE2 (HPNo, 1.37E1 nM) was 0.00254, the sTNF-alpha (HPNo, 1.37E1 nM) was 0.00645 and the CD62E/E-Selectin (HPNo, 3.33E3 nM) was -0.020. The CD69 (HPNo, 3.33E3 nM) was 0.040, the CXCL8/IL-8 (HPNo, 3.33E3 nM) was -0.040 and the CXCL9/MIG (HPNo, 3.33E3 nM) was 0.018. It also gave a M-CSF (HPNo, 3.33E3 nM) of 0.034, an SRB (HPNo, 3.33E3 nM) of -0.058 and a sPGE2 (HPNo, 3.33E3 nM) of 0.038. The sTNF-alpha (HPNo, 3.33E3 nM) was -0.021, the CD62E/E-Selectin (HPNo, 3.70E2 nM) was 0.026 and the CD69 (HPNo, 3.70E2 nM) was 0.012. It also gave a CXCL8/IL-8 (HPNo, 3.70E2 nM) of -0.025, a CXCL9/MIG (HPNo, 3.70E2 nM) of -0.067 and a M-CSF (HPNo, 3.70E2 nM) of -0.063. The SRB (HPNo, 3.70E2 nM) was -0.017, the sPGE2 (HPNo, 3.70E2 nM) was 0.040 and the sTNF-alpha (HPNo, 3.70E2 nM) was -0.022. It also gave a CD62E/E-Selectin (HPNo, 4.12E1 nM) of -0.00169, a CD69 (HPNo, 4.12E1 nM) of 0.020 and a CXCL8/IL-8 (HPNo, 4.12E1 nM) of 0.023. The CXCL9/MIG (HPNo, 4.12E1 nM) was -0.041, the M-CSF (HPNo, 4.12E1 nM) was -0.031 and the SRB (HPNo, 4.12E1 nM) was -0.00266. For the same molecule, the sPGE2 (HPNo, 4.12E1 nM) was 0.016, the sTNF-alpha (HPNo, 4.12E1 nM) was 0.015 and the CD62E/E-Selectin (HPNo, 4.57E0 nM) was 0.045. The CD69 (HPNo, 4.57E0 nM) was 0.075, the CXCL8/IL-8 (HPNo, 4.57E0 nM) was 0.031 and the CXCL9/MIG (HPNo, 4.57E0 nM) was -0.000203. For the same molecule, the M-CSF (HPNo, 4.57E0 nM) was 0.012, the SRB (HPNo, 4.57E0 nM) was 0.035 and the sPGE2 (HPNo, 4.57E0 nM) was 0.00462. The sTNF-alpha (HPNo, 4.57E0 nM) was 0.128, the CCL2/MCP-1 (LPS Huvec+PBMC, 1.00E4 nM) was -0.081 and the CD40 (LPS Huvec+PBMC, 1.00E4 nM) was -0.109. For the same molecule, the CD62E/E-Selectin (LPS Huvec+PBMC, 1.00E4 nM) was 0.010, the CD69 (LPS Huvec+PBMC, 1.00E4 nM) was 0.030 and the CD106/VCAM-1 (LPS Huvec+PBMC, 1.00E4 nM) was 0.079. For the same molecule, the CD141/Thrombomodulin (LPS Huvec+PBMC, 1.00E4 nM) was 0.127, the “CD142/Tissue Factor” value (LPS Huvec+PBMC, 1.00E4 nM) was 0.079 and the CXCL8/IL-8 (LPS Huvec+PBMC, 1.00E4 nM) was -0.169. The IL-1alpha (LPS Huvec+PBMC, 1.00E4 nM) was 0.125, the M-CSF (LPS Huvec+PBMC, 1.00E4 nM) was 0.029 and the SRB (LPS Huvec+PBMC, 1.00E4 nM) was -0.141. For the same molecule, the sPGE2 (LPS Huvec+PBMC, 1.00E4 nM) was 0.164, the sTNF-alpha (LPS Huvec+PBMC, 1.00E4 nM) was -0.051 and the CCL2/MCP-1 (LPS Huvec+PBMC, 1.11E3 nM) was -0.044. It also gave a CD40 (LPS Huvec+PBMC, 1.11E3 nM) of -0.137, a CD62E/E-Selectin (LPS Huvec+PBMC, 1.11E3 nM) of 0.000345 and a CD69 (LPS Huvec+PBMC, 1.11E3 nM) of 0.043. The CD106/VCAM-1 (LPS Huvec+PBMC, 1.11E3 nM) was 0.105, the CD141/Thrombomodulin (LPS Huvec+PBMC, 1.11E3 nM) was 0.090 and the “CD142/Tissue Factor” value (LPS Huvec+PBMC, 1.11E3 nM) was 0.097. For the same molecule, the CXCL8/IL-8 (LPS Huvec+PBMC, 1.11E3 nM) was -0.191.
